Ends that are not written are not given here.
How the values were obtained:
popliteal LN cells = assay: Proliferation of LN cells after EAE induction and TCR peptide treatment (Table 23); format: cell-based, Lewis rats
Procedure: The proliferative responses and specificity of T cells in the draining LN (popliteal) of rats treated with TCR Vβ8(39-59) peptide for EAE on day 13 after disease induction were examined (Table 23). On day 0, Lewis rats received an EAE-inducing regimen of GP-BP+CFA SC into their hind footpads. […] On day 20, about 7 days after onset of EAE, popliteal LNs were removed and T cell proliferative activity in response to the indicated antigens or mitogens were tested directly.
Results are shown as net ^3 Hthymidine incorporation of 5 ×

DH reaction = assay: Delayed hypersensitivity (DH) ear swelling to TCR peptide (Example VI); format: in vivo, Lewis rats; conditions: to 50 μg TCR Vβ8(39-59) in Vβ8(39-59)-immunized rats
Procedure: The Vβ8(39-59)-immunized rats developed both specific antibodies to the Vβ8(39-59) peptide and a delayed hypersensitivity (DH) response of 0.17 mm ear swelling to 50 μg TCR Vβ8(39-59) peptide.

EAE = assay: Prevention, suppression and treatment of EAE with TCR Vβ8-39-59 peptide (Table 25); format: in vivo, Lewis rats
[1] = system: T cell lines derived from rats protected from EAE; assay: Proliferation of LN cells and T cell lines from rats protected by TCR Vβ8 peptide (Table 12); format: cell-based, rat
DTH (ear thickness) = assay: DTH to T cells and TCR peptides after clone transfer or peptide immunization (Table 32); format: in vivo, rats; conditions: 50 μg TCR peptide
Procedure: Transfer of DTH and protection: Delayed type hypersensitivity reactions were measured by the ear swelling assay (Offner et al., J. Neuroimmunol. 9: 147)) 24 and 48 h after injection i.d. of 20 μg antigen.
Rats received 5 million activated clone C45569 or clone C5GpBP

LNC and T cell lines = assay: T cell proliferation after treatment of EAE with TCR Vβ8 39-59/CFA (Table 27); format: cell-based, rats
Procedure: Lymphocyte Proliferation: Activation of T cells was measured by ^3 H-Tdy uptake. 500,000 lymph node cells or 20,000 line cells in the presence of 1 million irradiated thymic accessory cells were incubated with culture medium and antigens in microtiter wells for 18 hours prior to the addition of 0.5 μBq labeled thymidine. The cell cultures were harvested onto glass fiber filters and counted by liquid scintillation techniques. Mean CPM were calculated from triplicate cultures. Standard deviations (SD) from replicate cultures varied <10% from the mean value.
^a Treated rats were injected s.q. with 50 μg TCR Vβ839-59
^b LW cells collected after the untreated group recovered from EAE

passive EAE = assay: Treatment of passively induced EAE with TCR Vβ8 peptides (FIGS. 21A, 22); format: in vivo, rats
[2] = peptide/CFA s.q., Day 0, listed as TCR

DMGHGLRLIHYSYDVNSTEKG [TCR Vβ8(39-59), 21-amino acid CDR2 peptide of rat TCR Vβ8]
T Cell Proliferation (popliteal LN cells; LN cells day 20 of Control rats (saline day 13)): 31 cpm × 10^-3
T Cell Proliferation (popliteal LN cells; LN cells of rats given TCR Vβ 8(39-59) 50 μg ID day 13): 30 cpm × 10^-3
T Cell Proliferation (popliteal LN cells; LN cells of rats given TCR Vβ 8(39-59) 100 μg SC (in CFA) day 13): 39 cpm × 10^-3
delayed hypersensitivity (DH) response, ear swelling (DH reaction): 0.17 mm
maximum clinical severity (EAE; 50 μg i.d. on day 0, 7 or 11, controls 3.4): 1.7-1.8
duration of EAE (EAE; 50 μg i.d. on day 0, 7 or 11, controls 6.6 days): 3 to 4 days
EAE/TOTAL (EAE; i.d. in saline, Day 0): 5/6
EAE/TOTAL (EAE; i.d., 10 μg, day of onset): 6/6
Max Clin. Signs (EAE; i.d., 10 μg, day of onset): 2.8 ± 0.4
Onset (EAE; i.d., 10 μg, day of onset): 12
Duration (EAE; i.d., 10 μg, day of onset, listed as TCR): 4.0 ± 0.9 days
Duration (EAE; i.d., 10 μg, day of onset, listed as TCR peptide): 4.0 days
EAE/TOTAL (EAE; i.d., 50 μg, day of onset): 9/9
Max Clin. Signs (EAE; i.d., 50 μg, day of onset): 2.8 ± 0.3
Onset (EAE; i.d., 50 μg, day of onset): 12
Duration (EAE; i.d., 50 μg, day of onset, listed as TCR): 3.1 ± 0.3 days
Duration (EAE; i.d., 50 μg, day of onset, listed as TCR peptide): 3.1 days
Duration (EAE; i.d., Day 0): 3.0 ± 1.8 days
Max Clin. Signs (EAE; i.d., Day 0): 1.8 ± 1.0
Onset (EAE; i.d., Day 0): 15
Duration (EAE; i.d., Day 7): 2.0 ± 1.9 days
EAE/TOTAL (EAE; i.d., Day 7): 4/6
Max Clin. Signs (EAE; i.d., Day 7): 1.7 ± 1.4
Onset (EAE; i.d., Day 7): 14
Duration (EAE; i.d., Day before onset): 2.5 ± 2.1 days
EAE/TOTAL (EAE; i.d., Day before onset): 6/8
Max Clin. Signs (EAE; i.d., Day before onset): 1.8 ± 1.3
Onset (EAE; i.d., Day before onset): 12
rats with onset of EAE completely prevented (EAE; injection after GP-MBP challenge but before onset): 4/19
rats with all clinical signs of EAE completely suppressed (EAE; injection at the same time as GP-MBP challenge): 6/19
Duration (EAE; peptide/CFA s.q., Day 0): 2.0 days
EAE/TOTAL (EAE; peptide/CFA s.q., Day 0): 8/13
Max Clin. Signs (EAE; peptide/CFA s.q., Day 0): 1.3
Onset (EAE; peptide/CFA s.q., Day 0): 13
Duration (EAE; [2]): 2.0 ± 1.8 days
Max Clin. Signs (EAE; [2]): 1.3 ± 1.1
Duration (EAE; peptide/CFA s.q., Day -40): 0 ± 0 days
EAE/TOTAL (EAE; peptide/CFA s.q., Day -40): complete protection against clinical EAE
Max Clin. Signs (EAE; peptide/CFA s.q., Day -40): 0 ± 0
EAE/TOTAL (EAE; peptide/CFA s.q., Day -40, listed as TCR): 0/20
Duration (EAE; peptide/CFA s.q., Day onset): 3.5 days
EAE/TOTAL (EAE; peptide/CFA s.q., Day onset): 20/20
Max Clin. Signs (EAE; peptide/CFA s.q., Day onset): 2.3 ± 0.9
Onset (EAE; peptide/CFA s.q., Day onset): 12
Duration (EAE; peptide/CFA s.q., Day onset, listed as TCR): 3.5 ± 1.4 days
Duration (EAE; peptide/CFA, Day 10): 3.6 ± 0.9 days
EAE/TOTAL (EAE; peptide/CFA, Day 10): 5/5
Max Clin. Signs (EAE; peptide/CFA, Day 10): 2.8 ± 0.4
Onset (EAE; peptide/CFA, Day 10): 13
T Cell Proliferation ([1]; 1st value column (head not given; LN cells of protected rats)): 27 cpm × 10^-3
T Cell Proliferation ([1]; 2nd value column (head not given, TCR Vβ8(39-59)-selected line)): 100 cpm × 10^-3
T Cell Proliferation ([1]; 4th value column (head not given; mixed TCR- and BP-specific T cells)): 140 cpm × 10^-3
T Cell Proliferation ([1]; +OX-6 (anti I-A)): 99 cpm × 10^-3
T Cell Proliferation ([1]; +OX-8 (anti-CD8)): 22 cpm × 10^-3
T Cell Proliferation ([1]; +OX-17 (anti I-E)): 100 cpm × 10^-3
T Cell Proliferation ([1]; +OX-18 (anti class 1)): 31 cpm × 10^-3
T Cell Proliferation ([1]; +W3/25 (anti-CD4)): 105 cpm × 10^-3
T Cell Proliferation ([1]; GPBP-selected line): 1 cpm × 10^-3
DTH, change in ear thickness 48 h (DTH (ear thickness); Immunization None): 3 ± 1
DTH, change in ear thickness 48 h (DTH (ear thickness); rats given 5 million C5Gp-BP (Vβ8.2+)): 6 ± 3
DTH, change in ear thickness 48 h (DTH (ear thickness); rats given C455-69): 17 ± 2
DTH, change in ear thickness 48 h (DTH (ear thickness); rats immunized with Vβ8.239-59 peptide/CFA): 39 ± 9
DTH, change in ear thickness 48 h (DTH (ear thickness); rats immunized with Vβ8.639-59 peptide/CFA): 27 ± 4
net proliferation of reactive cells (LNC and T cell lines; GP-MBP-selected line from TCR peptide-treated rats): 49,000 CPM
net proliferation of reactive cells (LNC and T cell lines; GP-MBP-selected line from untreated EAE-recovered rats): 9,000 CPM
Proliferation (LNC and T cell lines; Treated rats (TCR Vβ8 39-59/CFA at onset), LNC): 39 ± 4 CPM/1000
Proliferation (LNC and T cell lines; Treated rats, line BP/1st): 66 ± 6 CPM/1000
Proliferation (LNC and T cell lines; Treated rats, line Vβ8/1st): 85 ± 2 CPM/1000
Proliferation (LNC and T cell lines; Untreated rats (GPBP/CFA only), LNC): 34 ± 4 CPM/1000
Proliferation (LNC and T cell lines; Untreated rats, line BP/1st): 24 ± 3 CPM/1000
Proliferation (LNC and T cell lines; Untreated rats, line Vβ8/1st): 34 ± 2 CPM/1000
Proliferation (LNC and T cell lines; Untreated rats, line Vβ14/1st): 11 ± 1 CPM/1000
severity and duration of passively induced EAE (passive EAE; EAE induced by Vβ8.2+ T cell lines specific for BP): marked reduction in the severity and duration of EAE
protection from lethal EAE (passive EAE; rat, in vivo): protected all of the recipients from lethal EAE
